Data reported in US20240384350A1, “METHODS OF TREATING CANCER WITH KINASE INHIBITORS” (BOARD OF REGENTS, THE UNIVERSITY OF TEXAS SYSTEM, priority 2021, published 2024).

Columns and labels:
Experiment in all cases: Ba/F3 drug screening, Cell Titer Glo, IC50 Mut/WT
Format in all cases: cell-based
EGFR N771dupN = biological target: T1, EGFR N771dupN (Homo sapiens, UniProt P00533, DUP771-771); conditions: Ex20, 72 hours
T1 construct: expressed in transfected cells; host or cells: Ba/F3 cells, retroviral pBabe-Puro vector
Procedure: Data represent the ratio of the IC50 value for a given TKI for cells with an ex20ins EGFR mutation to the IC50 value for cells with wildtype EGFR.
(§1) Ba/F3 cell generation, drug screening, and IC50 approximations. Ba/F3 cells were obtained as a gift from Dr. Gordon Mills (MD Anderson Cancer Center), and maintained in RPMI (Sigma) containing 10% FBS, 1% penicillin/streptomycin, and 10 ng/ml recombinant mIL-3 (R&D Biosystems). To establish stable Ba/F3 cell lines, Ba/F3 cells were transduced with retroviruses containing mutant EGFR plasmids for 12-24 hours.
After 48-72 hours of transduction, 2 μg/ml puromycin (Invitrogen) was added to Ba/F3 cell lines in complete RPMI. To select for EGFR positive cell lines, cells were stained with PE-EGFR (Biolegend) and sorted by FACS. After sorting, EGFR positive cells were maintained in RPMI containing 10% FBS, 1% penicillin/streptomycin, and 1 ng/ml EGF to support cell viability. Drug screening was performed as previously described^41,42. Shortly, cells were plated in 384-well plates (Greiner Bio-One) at 2000-3000 cells per well in technical triplicate. Seven different concentrations of TKIs or DMSO vehicle were added to reach a final volume of 40 μL per well. After 72 hours, 11 μL of Cell Titer Glo (Promega) was added to each well. Plates were incubated for a minimum of 10 minutes, and bioluminescence was determined using a FLUOstar OPTIMA plate reader (BMG LABTECH). Raw bioluminescence values were normalized to DMSO control treated cells, and values were plotted in GraphPad Prism. […] Drug screens were performed in technical triplicate on each plate and either duplicate or triplicate biological replicates. […] Statistical differences between groups were determined by ANOVA as described in the figure legends.

[1] = biological target: T2, EGFR L747_K754del insATSPE (Homo sapiens, UniProt P00533, DEL747-749/K754E); conditions: T790M-like-3S, 72 hours
T2 construct: expressed in transfected cells; host or cells: Ba/F3 cells, retroviral pBabe-Puro vector

EGFR A767insASV = biological target: T3, EGFR A767insASV (Homo sapiens, UniProt P00533, DUP767-769); conditions: Ex20, 72 hours
T3 construct: expressed in transfected cells; host or cells: Ba/F3 cells, retroviral pBabe-Puro vector

EGFR Ex19del L718Q = biological target: T4, EGFR Ex19del L718Q (Homo sapiens, UniProt P00533, DEL746-750/L718Q); conditions: PACC; Ex19del L718Q; Ba/F3; 72 hours
T4 construct: expressed in transfected cells; host or cells: Ba/F3

EGFR G724S T790M = biological target: T5, EGFR G724S T790M (Homo sapiens, UniProt P00533, G724S/T790M); conditions: T790M-like-3R, 72 hours
T5 construct: expressed in transfected cells; host or cells: Ba/F3

EGFR Ex19del/T790M/G724S = biological target: T6, EGFR Ex19del/T790M/G724S (Homo sapiens, UniProt P00533, DEL746-750/G724S/T790M); conditions: T790M-like-3S, 72 hours
T6 construct: expressed in transfected cells; host or cells: Ba/F3

EGFR L858R/T790M = biological target: T7, EGFR L858R/T790M (Homo sapiens, UniProt P00533, L858R/T790M); conditions: T790M-like-3S, 72 hours
T7 construct: expressed in transfected cells; host or cells: Ba/F3

EGFR Ex19del/C797S = biological target: T8, EGFR Ex19del/C797S (Homo sapiens, UniProt P00533, C797S/DEL746-750); conditions: PACC; Ex19del/C797S; Ba/F3; 72 hours
T8 construct: expressed in transfected cells; host or cells: Ba/F3

EGFR R776C = biological target: T9, EGFR R776C (Homo sapiens, UniProt P00533, R776C); conditions: PACC; R776C; Ba/F3; 72 hours
T9 construct: host or cells: Ba/F3

EGFR L833V = biological target: T10, EGFR L833V (Homo sapiens, UniProt P00533, L833V); conditions: Classical-Like, 72 hours
T10 construct: expressed in transfected cells; host or cells: Ba/F3 cells, retroviral pBabe-Puro vector
Procedure: (§2) Data represent the ratio of the IC50 value for a given TKI for cells with a classical-like EGFR mutation to the IC50 value for cells with wildtype EGFR.
as §1
(§3) After 48-72 hours of transduction, 2 μg/ml puromycin (Invitrogen) was added to Ba/F3 cell lines in complete RPMI. To select for EGFR positive cell lines, cells were stained with PE-EGFR (Biolegend) and sorted by FACS. After sorting, EGFR positive cells were maintained in RPMI containing 10% FBS, 1% penicillin/streptomycin, and 1 ng/ml EGF to support cell viability. […] Shortly, cells were plated in 384-well plates (Greiner Bio-One) at 2000-3000 cells per well in technical triplicate. Seven different concentrations of TKIs or DMSO vehicle were added to reach a final volume of 40 μL per well. After 72 hours, 11 μL of Cell Titer Glo (Promega) was added to each well. Plates were incubated for a minimum of 10 minutes, and bioluminescence was determined using a FLUOstar OPTIMA plate reader (BMG LABTECH). Raw bioluminescence values were normalized to DMSO control treated cells, and values were plotted in GraphPad Prism. […] Drug screens were performed in technical triplicate on each plate and either duplicate or triplicate biological replicates.

EGFR G719A = biological target: T11, EGFR G719A (Homo sapiens, UniProt P00533, G719A); conditions: PACC; G719A; Ba/F3; 72 hours
T11 construct: expressed in transfected cells; host or cells: Ba/F3
Procedure: (§4) Data represent the ratio of the IC50 value for a given TKI for cells with a PACC EGFR mutation to the IC50 value for cells with wildtype EGFR.
as §1
(§5) After 48-72 hours of transduction, 2 μg/ml puromycin (Invitrogen) was added to Ba/F3 cell lines in complete RPMI. To select for EGFR positive cell lines, cells were stained with PE-EGFR (Biolegend) and sorted by FACS. After sorting, EGFR positive cells were maintained in RPMI containing 10% FBS, 1% penicillin/streptomycin, and 1 ng/ml EGF to support cell viability. Drug screening was performed as previously described^41,42. Shortly, cells were plated in 384-well plates (Greiner Bio-One) at 2000-3000 cells per well in technical triplicate. Seven different concentrations of TKIs or DMSO vehicle were added to reach a final volume of 40 μL per well. After 72 hours, 11 μL of Cell Titer Glo (Promega) was added to each well. Plates were incubated for a minimum of 10 minutes, and bioluminescence was determined using a FLUOstar OPTIMA plate reader (BMG LABTECH). Raw bioluminescence values were normalized to DMSO control treated cells, and values were plotted in GraphPad Prism. […] Drug screens were performed in technical triplicate on each plate and either duplicate or triplicate biological replicates.

EGFR L858R G724S = biological target: T12, EGFR L858R G724S (Homo sapiens, UniProt P00533, G724S/L858R); conditions: PACC; L858R G724S; Ba/F3; 72 hours
T12 construct: expressed in transfected cells; host or cells: Ba/F3 (retroviral transduction, pBabe-Puro based vectors)
Procedure: as §4, §1, §5

EGFR E709K G719S = biological target: T13, EGFR E709K G719S (Homo sapiens, UniProt P00533, E709K/G719S); conditions: PACC; E709K G719S; Ba/F3; 72 hours
T13 construct: expressed in transfected cells; host or cells: Ba/F3

EGFR L718Q = biological target: T14, EGFR L718Q (Homo sapiens, UniProt P00533, L718Q); conditions: PACC; L718Q; Ba/F3; 72 hours
T14 construct: expressed in transfected cells; host or cells: Ba/F3

EGFR A763insLQEA = biological target: T15, EGFR A763insLQEA (Homo sapiens, UniProt P00533, INS763LQEA); conditions: Classical-Like, 72 hours
T15 construct: expressed in transfected cells; host or cells: Ba/F3 cells, retroviral pBabe-Puro vector

EGFR L861R = biological target: T16, EGFR L861R (Homo sapiens, UniProt P00533, L861R); conditions: Classical-Like, 72 hours
T16 construct: expressed in transfected cells; host or cells: Ba/F3 cells, retroviral pBabe-Puro vector (vector made by GeneScript from EGFR WT)
Procedure: as §2, §1, §3

EGFR L718V = biological target: T17, EGFR L718V (Homo sapiens, UniProt P00533, L718V); conditions: PACC; L718V; Ba/F3; 72 hours
T17 construct: expressed in transfected cells; host or cells: Ba/F3
Procedure: as §4, §1, §5

EGFR G719A L861Q = biological target: T18, EGFR G719A L861Q (Homo sapiens, UniProt P00533, G719A/L861Q); conditions: PACC; G719A L861Q; Ba/F3; 72 hours
T18 construct: expressed in transfected cells; host or cells: Ba/F3

EGFR A763insFQEA = biological target: T19, EGFR A763insFQEA (Homo sapiens, UniProt P00533, INS763FQEA); conditions: Classical-Like, 72 hours
T19 construct: expressed in transfected cells; host or cells: Ba/F3 cells, retroviral pBabe-Puro vector
Procedure: as §2, §1, §3

EGFR L858R T790M L792H = biological target: T20, EGFR L858R T790M L792H (Homo sapiens, UniProt P00533, L792H/L858R/T790M); conditions: T790M-like-3S, 72 hours
T20 construct: expressed in transfected cells; host or cells: Ba/F3

EGFR L858R T790M L718V = biological target: T21, EGFR L858R T790M L718V (Homo sapiens, UniProt P00533, L718V/L858R/T790M); conditions: T790M-like-3R, 72 hours
T21 construct: expressed in transfected cells; host or cells: Ba/F3

EGFR S811F = biological target: T22, EGFR S811F (Homo sapiens, UniProt P00533, S811F); conditions: Classical-Like, 72 hours
T22 construct: expressed in transfected cells; host or cells: Ba/F3 cells, retroviral pBabe-Puro vector (vector made by GeneScript from EGFR WT)

EGFR S768I/T790M = biological target: T23, EGFR S768I/T790M (Homo sapiens, UniProt P00533, S768I/T790M); conditions: T790M-like-3S, 72 hours
T23 construct: expressed in transfected cells; host or cells: Ba/F3

EGFR T790M = biological target: T24, EGFR T790M (Homo sapiens, UniProt P00533, T790M); conditions: T790M-like-3S, 72 hours
T24 construct: expressed in transfected cells; host or cells: Ba/F3
Procedure: Data represent the ratio of the IC50 value for a given TKI for cells with a T790M-like-3S EGFR mutation to the IC50 value for cells with wildtype EGFR.
as §1, §5

EGFR E709_T710del insD = biological target: T25, EGFR E709_T710del insD (Homo sapiens, UniProt P00533, DEL709-709/T710D); conditions: PACC; E709_T710del insD; Ba/F3; 72 hours
T25 construct: expressed in transfected cells; host or cells: Ba/F3
Procedure: as §4, §1, §5

EGFR L858R L718Q = biological target: T26, EGFR L858R L718Q (Homo sapiens, UniProt P00533, L718Q/L858R); conditions: PACC; L858R L718Q; Ba/F3; 72 hours
T26 construct: host or cells: Ba/F3

CNC(=O)CN1CCC(Oc2cc3c(Nc4cccc(Cl)c4F)ncnc3cc2OC)CC1 [Sapatinib]
ratio of IC50 for cells with mutant EGFR to IC50 for cells with wildtype EGFR (Mut/WT) (EGFR N771dupN): 1.24 | ratio of IC50 for cells with mutant EGFR to IC50 for cells with wildtype EGFR (Mut/WT) [1]: 7.978 | ratio of IC50 for cells with mutant EGFR to IC50 for cells with wildtype EGFR (Mut/WT) (EGFR A767insASV): 2.233 | ratio of IC50 for cells with mutant EGFR to IC50 for cells with wildtype EGFR (Mut/WT) (EGFR Ex19del L718Q): 0.7162 | ratio of IC50 for cells with mutant EGFR to IC50 for cells with wildtype EGFR (Mut/WT) (EGFR G724S T790M): 48.62 | ratio of IC50 for cells with mutant EGFR to IC50 for cells with wildtype EGFR (Mut/WT) (EGFR Ex19del/T790M/G724S): 26.15 | ratio of IC50 for cells with mutant EGFR to IC50 for cells with wildtype EGFR (Mut/WT) (EGFR L858R/T790M): 38.86 | ratio of IC50 for cells with mutant EGFR to IC50 for cells with wildtype EGFR (Mut/WT) (EGFR Ex19del/C797S): 0.0006085 | ratio of IC50 for cells with mutant EGFR to IC50 for cells with wildtype EGFR (Mut/WT) (EGFR R776C): 0.02012 | ratio of IC50 for cells with mutant EGFR to IC50 for cells with wildtype EGFR (Mut/WT) (EGFR L833V): 0.008594 | ratio of IC50 for cells with mutant EGFR to IC50 for cells with wildtype EGFR (Mut/WT) (EGFR G719A): 0.01264 | ratio of IC50 for cells with mutant EGFR to IC50 for cells with wildtype EGFR (Mut/WT) (EGFR L858R G724S): 0.0004959 | ratio of IC50 for cells with mutant EGFR to IC50 for cells with wildtype EGFR (Mut/WT) (EGFR E709K G719S): 0.01102 | ratio of IC50 for cells with mutant EGFR to IC50 for cells with wildtype EGFR (Mut/WT) (EGFR L718Q): 2.03 | ratio of IC50 for cells with mutant EGFR to IC50 for cells with wildtype EGFR (Mut/WT) (EGFR A763insLQEA): 0.004226 | ratio of IC50 for cells with mutant EGFR to IC50 for cells with wildtype EGFR (Mut/WT) (EGFR L861R): 0.002811 | ratio of IC50 for cells with mutant EGFR to IC50 for cells with wildtype EGFR (Mut/WT) (EGFR L718V): 1.264 | ratio of IC50 for cells with mutant EGFR to IC50 for cells with wildtype EGFR (Mut/WT) (EGFR G719A L861Q): 0.04615 | ratio of IC50 for cells with mutant EGFR to IC50 for cells with wildtype EGFR (Mut/WT) (EGFR A763insFQEA): 0.3137 | ratio of IC50 for cells with mutant EGFR to IC50 for cells with wildtype EGFR (Mut/WT) (EGFR L858R T790M L792H): 54.78 | ratio of IC50 for cells with mutant EGFR to IC50 for cells with wildtype EGFR (Mut/WT) (EGFR L858R T790M L718V): 41.48 | ratio of IC50 for cells with mutant EGFR to IC50 for cells with wildtype EGFR (Mut/WT) (EGFR S811F): 0.006549 | ratio of IC50 for cells with mutant EGFR to IC50 for cells with wildtype EGFR (Mut/WT) (EGFR S768I/T790M): 54.78 | ratio of IC50 for cells with mutant EGFR to IC50 for cells with wildtype EGFR (Mut/WT) (EGFR T790M): 70.5 | ratio of IC50 for cells with mutant EGFR to IC50 for cells with wildtype EGFR (Mut/WT) (EGFR E709_T710del insD): 1.754 | ratio of IC50 for cells with mutant EGFR to IC50 for cells with wildtype EGFR (Mut/WT) (EGFR L858R L718Q): 0.1961
